Results: US20220162167A1, “SUBSTITUTED BICYCLIC AND TETRACYCLIC QUINONES AND USE THEREOF AS ANTI-CANCER AGENTS” (THE REGENTS OF THE UNIVERSITY OF MICHIGAN, priority 2019, published 2022)

What was measured:
Assay type in all cases: cell-based
[1] = test system: SK-MEL-2; test: NCI60 growth inhibition, SK-MEL-2; details: Melanoma; also: test concentration or dose not given here
How it was run: (§1)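 Growth inhibition values come from the NCI60 cancer cell panel run at the National Cancer Institute.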

[2] = test system: UACC-62; test: NCI60 growth inhibition, UACC-62; details: Melanoma; also: test concentration or dose not given here
How it was run: as §1

[3] = test system: ACHN; test: NCI60 growth inhibition, ACHN; details: Renal Cancer
How it was run: as §1

[4] = test system: MCF7; test: NCI60 growth inhibition, MCF7; details: Breast Cancer
How it was run: as §1

[5] = test system: CCRF-CEM; test: NCI60 growth inhibition, CCRF-CEM; details: Leukemia
How it was run: as §1

[6] = test system: RPMI-8226; test: NCI60 growth inhibition, RPMI-8226; details: Leukemia
How it was run: as §1

[7] = test system: SR; test: NCI60 growth inhibition, SR; details: Leukemia
How it was run: as §1

[8] = test system: SF-295; test: NCI60 growth inhibition, SF-295; details: CNS Cancer; also: test concentration or dose not given here
How it was run: as §1

[9] = test system: PC-3; test: NCI60 growth inhibition, PC-3; details: Prostate Cancer
How it was run: as §1

[10] = test system: DU-145; test: NCI60 growth inhibition, DU-145; details: Prostate Cancer
How it was run: as §1

[11] = test system: SK-MEL-5; test: NCI60 growth inhibition, SK-MEL-5; details: Melanoma
How it was run: as §1

[12] = test system: SK-MEL-28; test: NCI60 growth inhibition, SK-MEL-28; details: Melanoma
How it was run: as §1

[13] = test system: SW-620; test: NCI60 growth inhibition, SW-620; details: Colon Cancer; also: test concentration or dose not given here
How it was run: as §1

[14] = test system: HCT-15; test: NCI60 growth inhibition, HCT-15; details: Colon Cancer; also: test concentration or dose not given here
How it was run: as §1

[15] = test system: SNB-75; test: NCI60 growth inhibition, SNB-75; details: CNS Cancer; also: test concentration or dose not given here
How it was run: as §1

[16] = test system: LOX IMVI; test: NCI60 growth inhibition, LOX IMVI; details: Melanoma
How it was run: as §1

[17] = test system: SK-OV-3; test: NCI60 growth inhibition, SK-OV-3; details: Ovarian Cancer
How it was run: as §1

[18] = test system: OVCAR-4; test: NCI60 growth inhibition, OVCAR-4; details: Ovarian Cancer; also: test concentration or dose not given here
How it was run: as §1

[19] = test system: T-47D; test: NCI60 growth inhibition, T-47D; details: Breast Cancer
How it was run: as §1

[20] = test system: NCI-H460; test: NCI60 growth inhibition, NCI-H460; details: Non-Small Cell Lung Cancer
How it was run: as §1

[21] = test system: CAKI-1; test: NCI60 growth inhibition, CAKI-1; details: Renal Cancer; also: test concentration or dose not given here
How it was run: as §1

[22] = test system: HL-60(TB); test: NCI60 growth inhibition, HL-60(TB); details: Leukemia
How it was run: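 Representative compounds go through the National Cancer Institute's 60-cell cancer panel, where growth inhibition of each line is recorded.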

[23] = test system: EKVX; test: NCI60 growth inhibition, EKVX; details: Non-Small Cell Lung Cancer
How it was run: as §1

[24] = test system: HCC-2998; test: NCI60 growth inhibition, HCC-2998; details: Colon Cancer
How it was run: as §1

[25] = test system: A498; test: NCI60 growth inhibition, A498; details: Renal Cancer; also: test concentration or dose not given here
How it was run: as §1

[26] = test system: NCI-H322M; test: NCI60 growth inhibition, NCI-H322M; details: Non-Small Cell Lung Cancer
How it was run: as §1

[27] = test system: NCI-H522; test: NCI60 growth inhibition, NCI-H522; details: Non-Small Cell Lung Cancer
How it was run: as §1

[28] = test system: HOP-62; test: NCI60 growth inhibition, HOP-62; details: Non-Small Cell Lung Cancer; also: test concentration or dose not given here
How it was run: as §1

[29] = test system: UO-31; test: NCI60 growth inhibition, UO-31; details: Renal Cancer
How it was run: as §1

[30] = test system: COLO 205; test: NCI60 growth inhibition, COLO 205; details: Colon Cancer
How it was run: as §1

[31] = test system: 786-0; test: NCI60 growth inhibition, 786-0; details: Renal Cancer
How it was run: as §1

[32] = test system: A549/ATCC; test: NCI60 growth inhibition, A549/ATCC; details: Non-Small Cell Lung Cancer
How it was run: as §1

[33] = test system: NCI-H23; test: NCI60 growth inhibition, NCI-H23; details: Non-Small Cell Lung Cancer
How it was run: as §1

[34] = test system: TK-10; test: NCI60 growth inhibition, TK-10; details: Renal Cancer
How it was run: as §1

[35] = test system: IGROV1; test: NCI60 growth inhibition, IGROV1; details: Ovarian Cancer
How it was run: as §1

[36] = test system: RXF 393; test: NCI60 growth inhibition, RXF 393; details: Renal Cancer
Method: (§2) Representative compounds were tested in 60 cell lines (NCI60) at the National Cancer Institute, Developmental Therapeutics Program.
(§3) Representative compounds were tested in a panel of 60 cancer cells (NCI 60) at the National Cancer Institute. Growth inhibition are shown in table 2, table 3, table 4, table 5, and FIG. 1, FIG. 2, FIG. 3, FIG. 4, FIG. 5.

[37] = test system: U251; test: NCI60 growth inhibition, U251; details: CNS Cancer
How it was run: as §1

[38] = test system: SNB-19; test: NCI60 growth inhibition, SNB-19; details: CNS Cancer; also: test concentration or dose not given here
How it was run: as §1

[39] = test system: OVCAR-3; test: NCI60 growth inhibition, OVCAR-3; details: Ovarian Cancer
How it was run: as §1

[40] = test system: SF-539; test: NCI60 growth inhibition, SF-539; details: CNS Cancer
How it was run: as §1

[41] = test system: MDA-MB-468; test: NCI60 growth inhibition, MDA-MB-468; details: Breast Cancer; also: test concentration or dose not given here
How it was run: as §1

[42] = test system: SN12C; test: NCI60 growth inhibition, SN12C; details: Renal Cancer
How it was run: as §1

[43] = test system: K-562; test: NCI60 growth inhibition, K-562; details: Leukemia
How it was run: as §1

[44] = test system: OVCAR-5; test: NCI60 growth inhibition, OVCAR-5; details: Ovarian Cancer
How it was run: as §1

[45] = test system: HOP-92; test: NCI60 growth inhibition, HOP-92; details: Non-Small Cell Lung Cancer
How it was run: as §1

[46] = test system: MOLT-4; test: NCI60 growth inhibition, MOLT-4; details: Leukemia
How it was run: as §1

[47] = test system: BT-549; test: NCI60 growth inhibition, BT-549; details: Breast Cancer
Method: as §2, §3

[48] = test system: NCI-H226; test: NCI60 growth inhibition, NCI-H226; details: Non-Small Cell Lung Cancer; also: test concentration or dose not given here
How it was run: as §1

[49] = test system: MALME-3M; test: NCI60 growth inhibition, MALME-3M; details: Melanoma
How it was run: as §1

[50] = test system: MDA-MB-231/ATCC; test: NCI60 growth inhibition, MDA-MB-231/ATCC; details: Breast Cancer
How it was run: as §1

[51] = test system: NCI/ADR-RES; test: NCI60 growth inhibition, NCI/ADR-RES; details: Ovarian Cancer
How it was run: as §1

[52] = test system: HS 578T; test: NCI60 growth inhibition, HS 578T; details: Breast Cancer
How it was run: as §1

[53] = test system: MDA-MB-435; test: NCI60 growth inhibition, MDA-MB-435; details: Melanoma
How it was run: as §1

[54] = test system: SF-268; test: NCI60 growth inhibition, SF-268; details: CNS Cancer; also: test concentration or dose not given here
How it was run: as §1

[55] = test system: M14; test: NCI60 growth inhibition, M14; details: Melanoma
How it was run: as §1

[56] = test system: HT29; test: NCI60 growth inhibition, HT29; details: Colon Cancer
How it was run: as §1

[57] = test system: HCT-116; test: NCI60 growth inhibition, HCT-116; details: Colon Cancer
How it was run: as §1

[58] = test system: KM12; test: NCI60 growth inhibition, KM12; details: Colon Cancer; also: test concentration or dose not given here
How it was run: as §1

[59] = test system: UACC-257; test: NCI60 growth inhibition, UACC-257; details: Melanoma; also: test concentration or dose not given here
How it was run: as §1

Structure (SMILES): CN1CCN(c2ccc3nc4c(nc3c2C(F)(F)F)C(=O)c2ncccc2C4=O)CC1 [Compound 50, 9-(4-methylpiperazin-1-yl)-10-(trifluoromethyl)pyrido[2,3-b]phenazine-5,12-dione]
- Growth inhibition (% control) GIPRCNT [1]: −34.5495 % control
- Growth inhibition (% control) GIPRCNT [2]: −82.4675 % control
- Growth inhibition (% control) GIPRCNT [3]: −44.1558 % control
- Growth inhibition (% control) GIPRCNT [4]: −57.016 % control
- Growth inhibition (% control) GIPRCNT [5]: 5.713 % control
- Growth inhibition (% control) GIPRCNT [6]: 27.57 % control
- Growth inhibition (% control) GIPRCNT [7]: −27.1607 % control
- Growth inhibition (% control) GIPRCNT [8]: −61.5894 % control
- Growth inhibition (% control) GIPRCNT [9]: 8.007 % control
- Growth inhibition (% control) GIPRCNT [10]: −85.7143 % control
- Growth inhibition (% control) GIPRCNT [11]: −99.7024 % control
- Growth inhibition (% control) GIPRCNT [12]: 5.495 % control
- Growth inhibition (% control) GIPRCNT [13]: 4.709 % control
- Growth inhibition (% control) GIPRCNT [14]: −47.4718 % control
- Growth inhibition (% control) GIPRCNT [15]: 5.296 % control
- Growth inhibition (% control) GIPRCNT [16]: −50.1492 % control
- Growth inhibition (% control) GIPRCNT [17]: 29.68 % control
- Growth inhibition (% control) GIPRCNT [18]: −91.1398 % control
- Growth inhibition (% control) GIPRCNT [19]: −28.3961 % control
- Growth inhibition (% control) GIPRCNT [20]: −56.5637 % control
- Growth inhibition (% control) GIPRCNT [21]: 33.14 % control
- Growth inhibition (% control) GIPRCNT [22]: −50.3957 % control
- Growth inhibition (% control) GIPRCNT [23]: 5.133 % control
- Growth inhibition (% control) GIPRCNT [24]: −26.9174 % control
- Growth inhibition (% control) GIPRCNT [25]: −21.1398 % control
- Growth inhibition (% control) GIPRCNT [26]: 36.63 % control
- Growth inhibition (% control) GIPRCNT [27]: −67.5222 % control
- Growth inhibition (% control) GIPRCNT [28]: −63.3298 % control
- Growth inhibition (% control) GIPRCNT [29]: −19.0631 % control
- Growth inhibition (% control) GIPRCNT [30]: −94.9856 % control
- Growth inhibition (% control) GIPRCNT [31]: 36.69 % control
- Growth inhibition (% control) GIPRCNT [32]: −36.1751 % control
- Growth inhibition (% control) GIPRCNT [33]: −39.656 % control
- Growth inhibition (% control) GIPRCNT [34]: 80.29 % control
- Growth inhibition (% control) GIPRCNT [35]: −32.57 % control
- Growth inhibition (% control) GIPRCNT [36]: 38.36 % control
- Growth inhibition (% control) GIPRCNT [37]: 0.9108 % control
- Growth inhibition (% control) GIPRCNT [38]: 17.8598 % control
- Growth inhibition (% control) GIPRCNT [39]: −27.9399 % control
- Growth inhibition (% control) GIPRCNT [40]: −52.4375 % control
- Growth inhibition (% control) GIPRCNT [41]: −62.4106 % control
- Growth inhibition (% control) GIPRCNT [42]: −95.418 % control
- Growth inhibition (% control) GIPRCNT [43]: −6.717 % control
- Growth inhibition (% control) GIPRCNT [44]: −90.4043 % control
- Growth inhibition (% control) GIPRCNT [45]: 27.5 % control
- Growth inhibition (% control) GIPRCNT [46]: −36.4229 % control
- Growth inhibition (% control) GIPRCNT [47]: −97.0139 % control
- Growth inhibition (% control) GIPRCNT [48]: −78.8735 % control
- Growth inhibition (% control) GIPRCNT [49]: −99.1953 % control
- Growth inhibition (% control) GIPRCNT [50]: −5.992 % control
- Growth inhibition (% control) GIPRCNT [51]: 10.14 % control
- Growth inhibition (% control) GIPRCNT [52]: −15.9764 % control
- Growth inhibition (% control) GIPRCNT [53]: −91.762 % control
- Growth inhibition (% control) GIPRCNT [54]: 1.957 % control
- Growth inhibition (% control) GIPRCNT [55]: −89.6374 % control
- Growth inhibition (% control) GIPRCNT [56]: −55.5144 % control
- Growth inhibition (% control) GIPRCNT [57]: 0.9838 % control
- Growth inhibition (% control) GIPRCNT [58]: 13 % control
- Growth inhibition (% control) GIPRCNT [59]: −82.2969 % control
